PMC13267113 (npj Drug Discovery, 2025)
Values after ≈ are worked out from the molar mass of the structure shown. Read-outs that look alike come from different tables or passages of the source.

Key:
[1] = system: U-2 OS cells; experiment: Mitochondrial superoxide formation (MitoSOX Red); type: cell-based, human; details: n = 6; for basal superoxide radical levels vs DMSO control: 20 µM, MitoSOX Red, no menadione; for menadione-induced superoxide formation on co-treatment: CYS 20 µM + menadione 50 µM
Description: CYS was tested for its potential to induce oxidative stress in U-2 OS cells. Therefore, 120 µL of a cell suspension in McCoy’s (+10% FBS) containing 5 × 10^4 cells/mL were seeded into black 96-well imaging plate (BD Falcon). The plates were incubated for two days (37 °C, 5% CO2) until the cells reached approximately 70% confluence. Subsequently, the cells were washed with HBSS buffer, prior to adding CYS (20 µM) and the ROS inducer menadione (50 µM) as positive control, along with the staining solution (HBSS, calcium, magnesium, 5 µM MitoSOX red and 10 µg/mL Hoechst (Thermo)). To check for ROS protective properties, menadione (50 µM) was added directly to the staining solution. […] Afterwards, the cells were washed twice with HBSS. The cells were imaged using an automated fluorescence microscope (Celldiscoverer 7, Zeiss) (excitation: […]) to analyze the fluorescence intensity of the superoxide tracker MitoSOX red. The experiment was carried out with six replicates per condition. Quantification was done by high-content image analysis using the ZEN software (version 3.4, blue edition, Zeiss). Data presentation was done using GraphPad Prism (version 10.0.3) with ordinary one-way ANOVA including multiple comparisons to the control group for statistical analysis of the sample without ROS induction via menadione in the staining solution. Multiple unpaired t test was used to compare samples for ROS protective properties, which were incubated with menadione in the staining solution.

[2] = system: HepG2 (human, liver); experiment: MTT cytotoxicity HepG2; type: cell-based; details: 72 h, n = 3
Description: (§1) All cell types were cultivated at 37 °C with 5% CO2. HepG2, HEK293, HCT116, CHO-K1, HeLa-CCL-2 and Huh-7.5 were purchased from ATCC. The respective cell media (Gibco) were supplemented with 10% FBS (Gibco) before usage. Cells were used between passages #5 and #30. To obtain biological repeats, cells were split separately for at least two passages.
(§2) Cells were washed with PBS and 0.5 mL trypsin was added. Afterwards, cells were incubated for 5 min before adding 10 mL medium containing 10% FBS. Per well, 120 µL cell suspension (5 × 10^4 cells/mL) was seeded in transparent 96-well cell bind plates and incubated for 2 h (37 °C, 5% CO2). A dilution series (1:3) of test compounds was prepared in respective media containing 10% FBS and added (60 µL) to the prepared cell plate. Cells were incubated for a further 72 h (37 °C, 5% CO2). Next, 20 µL MTT (5 mg/mL in PBS) was added to each well and incubated for 2 h (37 °C, 5% CO2). The wells were emptied and 100 µL isopropanol/10 N HCl (1000:4) per well was added.
(§3) The plates were analyzed by measuring the absorbance at 570 nm (plate reader Infinite® 200 Pro, Tecan). After normalization of data to the respective solvent controls, the calculated percentage of growth inhibition was plotted using GraphPad Prism software (version 10.0.2).

[3] = system: Huh-7.5 (human, liver); experiment: MTT cytotoxicity Huh-7.5; type: cell-based; details: Huh7.5, 72 h, n = 3
Description: as §1, §2, §3

[4] = system: HEK293 (human, kidney); experiment: MTT cytotoxicity HEK293; type: cell-based
Description: as §1, §2, §3

[5] = system: U2OS (human, osteosarcoma); experiment: MTT cytotoxicity U2OS; type: cell-based; details: 72 h, n = 3
Description: as §2, §3

[6] = system: HeLa (human, cervix); experiment: MTT cytotoxicity HeLa; type: cell-based; details: 72 h, n = 3
Description: as §1, §2, §3

[7] = Metabolic stability in mouse hepatocytes; type: in vitro ADME; details: for half-life at 1 µM: read-out: Mouse Hepatocytes t1/2
Description: For the evaluation of combined phase I and phase II metabolic stability, the compound (1 μM) was incubated with 0.25 × 10^6 cells/mL of pooled mouse hepatocytes (Xenotech, Kansas City, USA). Cells were thawed in Leibovitz’s L-15 medium without phenol red (ThermoFisher Scientific, Waltham, USA). Briefly, cells were transferred into 50 mL of medium, followed by centrifugation at 55 g for 6 min. Supernatant was discarded, and the cell count was determined after gently resuspending the cell pellet in 1mL of medium. Hepatocytes were diluted to 0.5 × 10^6 cells/mL and incubated at 37 °C, 700 rpm for 10 min, to achieve the desired final cell count after addition of an equal volume of test compounds in medium, leading to a final test concentration of 1 µM at 1% DMSO. […] For the determination of metabolism in the presence of cobicistat, this drug was added together with test compounds in the desired concentration range. The metabolic stability of testosterone, verapamil, ketoconazole and 7-hydroxycoumarine were determined in parallel to confirm the enzymatic activity of mouse hepatocytes. […] Concentration of the remaining test compound at the different time points was analyzed by HPLC-MS/MS (Vanquish Flex coupled to a TSQ Altis Plus, Thermo Fisher, Dreieich, Germany) and used to determine half-life (t1/2). Intrinsic clearance was calculated as follows:2 CLintµL/min×10^6cells=Incubation volumeµL×ln(2)/Cells in incubation mixture[10^6]×t1/2
For metabolite identification studies, test compounds were incubated at 10 µM final concentration and samples were analyzed using HPLC-HRMS (Ultimate 3000 coupled to a Q Exactive Focus, Thermo Fisher, Dreieich, Germany). […] Blank samples using DMSO were run in parallel for background subtraction. Sample processing for metabolite identification was performed using Compound Discoverer 3.2 (Thermo Fisher, Dreieich, Germany). Metabolites were identified based on mass shifts and feasibility of the metabolic reaction, also in view of MS peak intensities over time.

[8] = system: HCT116 (human, colon); experiment: MTT cytotoxicity HCT116; type: cell-based; details: HCT-116, 72 h, n = 3
Description: as §1, §2, §3

[9] = system: CHO-K1 (hamster, ovary); experiment: MTT cytotoxicity CHO-K1; type: cell-based; details: CHO-K1, 72 h, n = 3
Description: as §1, §2, §3

[10] = system: E. coli gyrase; details: cited from earlier work
[11] = target: T1, human DNA topoisomerase IIα (TOP2A) (Homo sapiens, UniProt P11388); experiment: human topoisomerase II alpha decatenation assay; type: biochemical; details: n = 3, read-out: IC50 against TOP2A
T1 construct: purchased Inspiralis
T1 sequence (P11388 whole entry): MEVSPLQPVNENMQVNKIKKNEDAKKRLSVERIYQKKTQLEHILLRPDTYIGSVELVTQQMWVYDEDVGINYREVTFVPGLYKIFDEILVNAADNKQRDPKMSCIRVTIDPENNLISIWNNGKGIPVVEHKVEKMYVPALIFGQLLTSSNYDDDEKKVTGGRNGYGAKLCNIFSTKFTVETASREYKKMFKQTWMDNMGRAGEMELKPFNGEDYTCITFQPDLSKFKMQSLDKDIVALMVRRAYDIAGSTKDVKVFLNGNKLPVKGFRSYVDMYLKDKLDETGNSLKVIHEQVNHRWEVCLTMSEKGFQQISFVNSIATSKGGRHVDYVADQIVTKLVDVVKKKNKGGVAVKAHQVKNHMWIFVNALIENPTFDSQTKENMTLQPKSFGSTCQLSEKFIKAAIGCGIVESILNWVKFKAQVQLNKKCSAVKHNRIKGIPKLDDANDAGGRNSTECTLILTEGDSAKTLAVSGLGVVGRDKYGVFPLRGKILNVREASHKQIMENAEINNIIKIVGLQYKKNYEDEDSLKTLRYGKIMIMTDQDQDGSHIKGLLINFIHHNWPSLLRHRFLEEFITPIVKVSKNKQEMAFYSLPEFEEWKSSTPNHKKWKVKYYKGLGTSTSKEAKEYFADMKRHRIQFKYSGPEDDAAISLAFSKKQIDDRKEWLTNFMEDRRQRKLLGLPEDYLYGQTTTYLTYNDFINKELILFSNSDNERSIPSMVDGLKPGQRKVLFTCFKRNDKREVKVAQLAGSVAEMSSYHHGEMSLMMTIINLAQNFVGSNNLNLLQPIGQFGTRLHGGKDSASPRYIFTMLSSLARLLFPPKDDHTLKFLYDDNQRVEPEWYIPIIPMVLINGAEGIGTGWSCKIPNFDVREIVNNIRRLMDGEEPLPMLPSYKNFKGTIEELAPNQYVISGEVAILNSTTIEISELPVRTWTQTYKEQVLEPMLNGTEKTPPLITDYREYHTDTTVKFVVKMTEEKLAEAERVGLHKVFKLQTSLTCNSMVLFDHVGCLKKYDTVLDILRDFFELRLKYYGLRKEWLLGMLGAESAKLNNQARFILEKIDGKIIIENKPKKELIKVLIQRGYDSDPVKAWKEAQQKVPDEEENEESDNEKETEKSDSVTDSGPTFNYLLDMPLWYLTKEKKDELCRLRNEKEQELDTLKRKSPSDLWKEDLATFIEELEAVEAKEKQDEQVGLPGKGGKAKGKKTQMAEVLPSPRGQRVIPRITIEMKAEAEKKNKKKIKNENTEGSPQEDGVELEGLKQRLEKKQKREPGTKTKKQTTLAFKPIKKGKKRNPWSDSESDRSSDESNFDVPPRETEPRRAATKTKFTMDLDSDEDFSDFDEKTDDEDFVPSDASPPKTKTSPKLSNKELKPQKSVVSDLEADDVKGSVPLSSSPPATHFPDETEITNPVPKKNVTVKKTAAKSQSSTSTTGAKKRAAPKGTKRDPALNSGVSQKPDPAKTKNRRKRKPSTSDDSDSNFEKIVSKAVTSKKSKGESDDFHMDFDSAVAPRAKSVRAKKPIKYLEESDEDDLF

[12] = system: HCV pseudoparticle (HCVpp; JFH1 genotype 2a, Con1 genotype 1b) entry into Huh-7.5; experiment: HCVpp cell entry assay; details: Hepatitis C virus, GETYPE1B|GETYPE2A, Huh7.5, 72 h, read-out: concentration of 50% entry inhibition
[13] = physchem; details: zebrafish embryo incubation medium, aqueous buffer, kinetic from dmso stock
[14] = Mouse plasma protein binding; type: in vitro ADME; details: read-out: Mouse PPB (converted)
[15] = Metabolic stability in mouse liver microsomes; type: in vitro ADME; details: pooled mouse liver microsomes, 0.5 mg/mL microsomes, NADPH
Description: The metabolic stability of testosterone, verapamil and ketoconazole was determined in parallel to confirm the enzymatic activity of mouse liver microsomes. For combination experiments, cobicistat was added to the incubation mixture together with test compounds. […] Concentration of the remaining test compound at the different time points was analyzed by HPLC-MS/MS (Vanquish Flex coupled to a TSQ Altis Plus, Thermo Fisher, Dreieich, Germany) and used to determine half-life (t1/2).

[16] = Mouse plasma stability; type: in vitro ADME; details: read-out: Mouse plasma t1/2
[17] = system: CHO-K1 cells
[18] = set-up: method as in PMID 26437376, PMID 24041792; details: cited from earlier work
[19] = system: SCARB1; set-up: method as in PMID 19815817; details: previous in vivo mouse studies; cited from earlier work
[20] = system: zebrafish embryos [Tg(fabp10a:DsRed; elaA:EGFP)]; experiment: In vivo hepatotoxicity in zebrafish embryos; details: soaking 3 to 5 dpf; valproic acid 20, 40 µg/mL
Description: Handling of adult zebrafish and experiments with zebrafish embryos were performed in accordance with the EU directive 2010/63/EU and the German Animal Welfare Act (§11 Abs. 1 TierSchG). An automatic aquatic eco-system (PENTAIR, Apoka, UK) was used for zebrafish housing. Adult zebrafish were mated pairwise in our zebrafish facility after one night in the mating cages (light/dark cycle: 14 h/10 h). The eggs were collected after 2 h of mating and placed in a petri dish with fish water (pH 7.36 ± 0.08, conductivity: 800 ± 50 µs). The eggs were washed with 0.3x Danieau´s medium (17 mM NaCl, 0.2 mM KCl, 0.12 mM MgSO4, 0.18 mM Ca(NO3)2, 1.5 mM HEPES, pH 7.1–7.3, and 1.2 µM methylene blue). 300 eggs were placed per Petri dish and stored in the incubator at 28 °C overnight. […]
Zebrafish embryos [Tg(fabp10a:DsRed; elaA:EGFP)] were prepared as described above. […] After 48 h treatment, the embryos were checked via a fluorescence stereomicroscope (M205 FA, Leica) with attention to liver degeneration. Fluorescence images were taken after anesthetizing the embryos with tricaine (40 µg/mL) and placing them laterally (excitation: 558 nm, emission 583 nm, 35× magnification). […] The liver size was calculated using ImageJ software (format: 8 bit, threshold: 40–255, binary, particle size: 10.0-infinite). […] The relative liver sizes of treated embryos were calculated accordingly and normalized to the control group. […]

[21] = system: CHO-K1 cells; experiment: Micronucleus test; details: 24 h; mitomycin C 0.05 µM, doxorubicin 0.05 µM, etoposide 0.25 µM; CYS 20 µM, 100 µM for Cysto-180
[22] = mouse, pooled mouse hepatocytes, 1 μM, 0.25 × 10^6 cells/mL
[23] = HEK293, MTT, 72 h, n = 3, read-out: IC50 HEK293 (human, kidney)

| SMILES | basal superoxide radical levels vs DMSO control [1] | menadione-induced superoxide formation on co-treatment [1] | IC50 [2] [µM] | IC50 [5] [µM] | IC50 [6] [µM] | half-life at 1 µM [7, 22] [h] | IC50 [8] [µM] | IC50 [9] [µM] | IC50 [4, 23] [µM] | further results |
| --- | --- | --- | --- | --- | --- | --- | --- | --- | --- | --- |
| CC(C)Oc1c(NC(=O)c2ccc(NC(=O)[C@H](CC(N)=O)NC(=O)c3ccc(NC(=O)c4ccc(C#N)cc4)cc3)cc2)ccc(C(=O)Nc2ccc(C(=O)O)cc2)c1O [CN-DM-861] | no ROS induction at the maximum soluble concentration | no significant increase of superoxide | > 20 | > 20 | > 37 | 1.57 ± 0.25 | > 20 | > 20 |  | IC50 [3]: > 20 µM; IC50 ([4]; HEK293, 72 h, read-out: IC50 HEK293 (human, kidney)): > 20 µM; IC50 [10]: […] |
| C=CC1CC1(NC(=O)C12CC(NC(=O)c3ccc(C#N)cc3)(C1)C2)C(=O)Nc1ccc(C(=O)Nc2ccc(C(=O)Nc3ccc(C(=O)O)cc3)c(O)c2OC(C)C)cc1 (stereo not shown) [Cysto-180] | decrease of superoxide radical levels | no significant increase of superoxide | > 20 | > 20 | > 37 | 0.683 ± 0.267 | > 20 |  | > 20 | IC50 [11]: 12.2 ± 0.63 µM; IC50 [12]: ~3.3 µM; solubility [13]: 200 µM (≈ 159 µg/mL); fraction unbound [14]: 0.041; microsomal CLint at 1 μM ([15]; read-out: MLM Clint): < 11.6 µL/min/mg; half-life at 1 µM ([15]; read-out: MLM t1/2): > 2 h; half-life [16]: > 4 h; major metabolic pathways ([7]; metabolite identification, 10 µM, mouse hepatocytes): amide bond hydrolysis and glucuronidation; hepatocyte CLint at 1 µM [7, 22]: 26 µL/min/1e6 cells |
| COc1cccc2c1C(=O)c1c(O)c3c(c(O)c1C2=O)C[C@@](O)(C(=O)CO)C[C@@H]3O[C@H]1C[C@H](N)[C@H](O)[C@H](C)O1 [Doxorubicin, doxorubicin, reference compound] |  |  | 0.48 ± 0.13 |  |  |  | 0.24 ± 0.02 | 0.1 ± 0.01 | 0.16 ± 0.04 | micronuclei/nuclear bud formation [17]: high amount of nuclear bud/micronuclei formation |
| COc1c(NC(=O)C(=O)c2ccc(OCCN3CCOCC3)c3ccccc23)cc(C(C)(C)C)cc1NS(C)(=O)=O [ITX5061] |  |  |  |  |  |  |  |  |  | safety in humans [18]: safety in humans has been demonstrated; effect of SCARB1 suppression in mice [19]: increased beneficial HDL cholesterol levels and partially reduced atherosclerotic lesions |
| CCCC(CCC)C(=O)O [Valproic acid, valproic acid] |  |  |  |  |  |  |  |  |  | liver size [20]: significant liver size reduction |
| CO[C@@]12[C@H](COC(N)=O)C3=C(C(=O)C(C)=C(N)C3=O)N1C[C@@H]1N[C@@H]12 [mitomycin C] |  |  |  |  |  |  |  |  |  | micronuclei/nuclear bud formation [21]: high amount of nuclear bud/micronuclei formation |
